In patent US12643858B2 (Inipharm, Inc., priority 2020, dated 2026):

biological target: T1, HSD17B13 enzyme (Homo sapiens, UniProt Q7Z5P4); test: NADH detection assay (fluorescence based LTB3 assay) for HSD17B13 activity; format: biochemical; conditions: substrate 25 μM LTB3, 3 mM NAD+, 125 nM HSD17B13 enzyme, 1 hour at 26.5° C.
T1 construct: His; made in house; host or cells: E. coli
T1 sequence (Q7Z5P4 20-300): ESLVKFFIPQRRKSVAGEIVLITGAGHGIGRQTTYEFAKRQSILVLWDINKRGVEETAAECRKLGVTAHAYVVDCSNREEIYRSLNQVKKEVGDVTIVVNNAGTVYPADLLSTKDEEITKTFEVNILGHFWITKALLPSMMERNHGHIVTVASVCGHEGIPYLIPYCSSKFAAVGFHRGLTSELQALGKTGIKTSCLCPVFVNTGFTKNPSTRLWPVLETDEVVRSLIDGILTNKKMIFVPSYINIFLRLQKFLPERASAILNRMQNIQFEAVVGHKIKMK
Procedure: Example A: NADH Detection Assay for Evaluation of HSD17ß13 Activity and Identification of Inhibitors
The fluorescence based Leukotriene B3 (LTB3) assay monitors the fluorescence of NADH, which is generated from NAD+ during the dehydrogenation of the substrate LTB3. The reactions were performed in a 384-well plates (Greiner; #655076) in a 20 μl reaction volume containing the following reagents (final concentrations): 25 μM LTB3 (Cayman; #20109); 3 mM NAD+ (Sigma; #N0623); 125 nM HSD17B13 enzyme (in-house; E. coli expressed His-tagged, purified, soluble protein); […] potassium phosphate buffer, pH 7.4; and 1% DMSO. Reactions were initiated by co-addition of NAD+ and enzyme, and monitored for 1 hour at 26.5° C. Generation of NADH was measured as the fluorescence signal (Excitation at 340 nm and Emission at 445 nm) at 1 hour minus the baseline fluorescence at t=0. Fluorescence signals in the absence of LTB3 (negative control values), were subtracted from all values so that the results reflected substrate-dependent production of NADH. NADH standards were included to allow the conversion of relative fluorescence units into rates of enzyme activity. Enzyme activity in the presence of test compounds was expressed as a percentage of the uninhibited enzyme activity, and plotted versus inhibitor concentration. Non-linear regression was performed using a four-parameter logistic model and GraphPad Prism software (GraphPad Software, La Jolla, CA). Ten concentrations of inhibitor were tested (in the range of 30 μM-2.5 nM), and two independent assessments were performed at each concentration.

Q: `COc1cccc(-c2cccc(Oc3ccc(F)c(C(F)F)c3)n2)c1F` [Example 52, 2-[3-(difluoromethyl)-4-fluorophenoxy]-6-(2-fluoro-3-methoxyphenyl) pyridine] was tested. Which IC50 did it give?
A: The IC50 was greater than 30 µM.

Q: How did the IC50 turn out when `Oc1cc(Oc2cccc(-c3ccc(OC(F)(F)F)c(Cl)c3)n2)ccc1F` [Example 66, 5-((6-(3-chloro-4-(trifluoromethoxy)phenyl)pyridin-2-yl)oxy)-2-fluorophenol] was run?
A: Its IC50 is no more than 5 µM.

Q: Which IC50 does the source give for `O=c1ccc(-c2cccc(Oc3ccc(F)c(O)c3)n2)cn1C(F)F` [Example 73, 1′-(difluoromethyl)-6-(4-fluoro-3-hydroxyphenoxy)-[2,3′-bipyridin]-6′(1′H)-one] here?
A: Its IC50 is greater than 30 µM.

Q: For `CC(=O)Nc1nc2cc(-c3cccc(Oc4ccc(F)c(O)c4)n3)ccc2s1` [Example 61, N-(5-(6-(4-fluoro-3-hydroxyphenoxy)pyridin-2-yl)benzo[d]thiazol-2-yl) acetamide], which IC50 is on record?
A: The IC50 was greater than 30 µM.

Q: Which IC50 does the source give for `NS(=O)(=O)c1cccc(-c2cccc(Oc3ccc(F)c(O)c3)n2)c1` [Example 49, 3-[6-(4-fluoro-3-hydroxyphenoxy)pyridin-2-yl]benzene-1-sulfonamide] here?
A: The IC50 was 5 to 10 µM.

Q: `O=S(=O)(Nc1ccccc1)c1cccc(-c2cccc(Oc3ccc(F)c(O)c3)n2)c1` [Example 45, 3-(6-(4-fluoro-3-hydroxyphenoxy)pyridin-2-yl)-N-phenylbenzene sulfonamide] was tested. Which IC50 did it give?
A: The IC50 was no more than 5 µM.

Q: `CN(C)S(=O)(=O)c1cccc(-c2cccc(Oc3ccc(F)c(O)c3)n2)c1` [Example 20, 3-(6-(4-fluoro-3-hydroxyphenoxy)pyridin-2-yl)-N,N-dimethylbenzenesulfonamide] was tested. Which IC50 did it give?
A: The IC50 was 5 to 10 µM.

Q: `CNc1cccc(-c2cccc(Oc3ccc(F)c(O)c3)n2)c1` [Example 54, 2-fluoro-5-({6-[3-(methylamino)phenyl]pyridin-2-yl}oxy)phenol] was tested. Which IC50 did it give?
A: The IC50 was no more than 5 µM.

Q: With `Oc1cc(Oc2cccc(-c3ccccc3Cl)n2)ccc1F` [Example 83, 5-{[6-(2-chlorophenyl)pyridin-2-yl]oxy}-2-fluorophenol] as the compound, how does the IC50 read?
A: Its IC50 is no more than 5 µM.

Q: `Oc1cc(Oc2cccc(-c3ccc(F)cc3F)n2)ccc1F` [Example 84, 5-{[6-(2,4-difluorophenyl)pyridin-2-yl]oxy}-2-fluorophenol] was tested. Which IC50 did it give?
A: Its IC50 is 5 to 10 µM.

Q: With `CNC(=O)c1cccc(-c2cccc(Oc3ccc(F)c(O)c3)n2)c1` [Example 81, 3-(6-(4-fluoro-3-hydroxyphenoxy)pyridin-2-yl)-N-methylbenzamide] as the compound, how does the IC50 read?
A: The IC50 was no more than 5 µM.

Q: Which IC50 does the source give for `CNC(=O)c1cc(Oc2ccc(F)c(O)c2)nc(-c2cccc(O)c2F)c1` [Example 69, 2-(4-fluoro-3-hydroxyphenoxy)-6-(2-fluoro-3-hydroxyphenyl)-N-methylpyridine-4-carboxamide] here?
A: The IC50 was 10 to 30 µM.

Q: `Oc1cccc(-c2cccc(Oc3ccc(F)c(O)c3)n2)c1` [Example 97, 2-fluoro-5-{[6-(3-hydroxyphenyl)pyridin-2-yl]oxy}phenol] was tested. Which IC50 did it give?
A: The IC50 was 10 to 30 µM.

Q: How did the IC50 turn out when `Oc1cc(Oc2cccc(-c3ccc4c(c3)OCO4)n2)ccc1F` [Example 67, 5-((6-(benzo[d][1,3]dioxol-5-yl)pyridin-2-yl)oxy)-2-fluorophenol] was run?
A: Its IC50 is no more than 5 µM.

Q: Which IC50 does the source give for `COc1cccc(-c2cccc(Oc3ccc(F)c(NC(C)=O)c3)n2)c1F` [Example 107, N-(2-fluoro-5-{[6-(2-fluoro-3-methoxyphenyl)pyridin-2-yl]oxy}phenyl)acetamide] here?
A: Its IC50 is greater than 30 µM.

Q: How did the IC50 turn out when `O=S(=O)(c1ccc(F)c(O)c1)c1cccc(-c2cccc(O)c2F)n1` [Example 55, 2-fluoro-3-[6-(4-fluoro-3-hydroxybenzenesulfonyl)pyridin-2-yl]phenol] was run?
A: Its IC50 is 5 to 10 µM.

Q: `N#Cc1cc(Oc2ccc(F)c(O)c2)nc(-c2cccc(O)c2F)c1` [Example 27, 2-(4-fluoro-3-hydroxyphenoxy)-6-(2-fluoro-3-hydroxyphenyl) pyridine-4-carbonitrile] was tested. Which IC50 did it give?
A: Its IC50 is no more than 5 µM.

Q: With `CNC(=O)c1ccc(-c2cccc(Oc3ccc(F)c(O)c3)n2)cc1` [Example 80, 4-(6-(4-fluoro-3-hydroxyphenoxy)pyridin-2-yl)-N-methylbenzamide] as the compound, how does the IC50 read?
A: The IC50 was no more than 5 µM.

Q: For `NS(=O)(=O)Nc1cc(Oc2cccc(-c3cccc(O)c3F)n2)ccc1F` [Example 30, N-(2-fluoro-5-{[6-(2-fluoro-3-hydroxyphenyl)pyridin-2-yl]oxy}phenyl)aminosulfonamide], which IC50 is on record?
A: The IC50 was greater than 30 µM.

Q: Which IC50 does the source give for `O=c1[nH]c2ccc(Oc3cccc(-c4cccc(O)c4F)n3)cc2[nH]1` [Example 41, 5-((6-(2-fluoro-3-hydroxyphenyl)pyridin-2-yl)oxy)-1,3-dihydro-2H-benzo[d]imidazol-2-one] here?
A: The IC50 was 5 to 10 µM.

Q: How did the IC50 turn out when `CNc1nc2cc(-c3cccc(Oc4ccc(F)c(O)c4)n3)ccc2s1` [Example 21] was run?
A: The IC50 was 5 to 10 µM.

Q: With `CNC(=O)c1cc(Oc2cccc(-c3cccc(OC)c3F)n2)ccc1F` [Example 109, 2-fluoro-5-{[6-(2-fluoro-3-methoxyphenyl)pyridin-2-yl]oxy}-N-methylbenzamide] as the compound, how does the IC50 read?
A: The IC50 was greater than 30 µM.

Q: With `COc1cc(Oc2ccnc(-c3cccc(O)c3F)n2)ccc1F` [Example 16, 2-fluoro-3-[4-(4-fluoro-3-methoxyphenoxy)pyrimidin-2-yl]phenol] as the compound, how does the IC50 read?
A: Its IC50 is greater than 30 µM.

Q: How did the IC50 turn out when `Oc1ccc(Oc2cccc(-c3cccc(O)c3F)n2)cc1F` [Example 37, 2-fluoro-3-[6-(3-fluoro-4-hydroxyphenoxy)pyridin-2-yl] phenol] was run?
A: Its IC50 is no more than 5 µM.

Q: With `COc1ccc(-c2cccc(Oc3ccc(F)c(O)c3)n2)cc1` [Example 102, 2-fluoro-5-((6-(4-methoxyphenyl)pyridin-2-yl)oxy)phenol] as the compound, how does the IC50 read?
A: Its IC50 is 10 to 30 µM.

Q: For `Oc1cccc(Oc2cccc(-c3cccc(O)c3F)n2)c1F` [Example 36, 2-fluoro-3-(6-(2-fluoro-3-hydroxyphenoxy)pyridin-2-yl)phenol], which IC50 is on record?
A: Its IC50 is no more than 5 µM.

Q: `CN1C(=O)COc2cc(-c3cccc(Oc4ccc(F)c(O)c4)n3)ccc21` [Example 53, 7-(6-(4-fluoro-3-hydroxyphenoxy)pyridin-2-yl)-4-methyl-2H-benzo[b][1,4]oxazin-3(4H)-one] was tested. Which IC50 did it give?
A: Its IC50 is no more than 5 µM.

Q: With `O=c1[nH]c2ccc(-c3cccc(Oc4ccc(F)c(O)c4)n3)cc2[nH]1` [Example 58, 5-(6-(4-fluoro-3-hydroxyphenoxy)pyridin-2-yl)-1,3-dihydro-2H-benzo[d]imidazol-2-one] as the compound, how does the IC50 read?
A: Its IC50 is no more than 5 µM.

Q: For `O=S1(=O)CCN(c2ccc(-c3cccc(Oc4ccc(F)c(O)c4)n3)cc2)CC1` [Example 31, 4-(4-(6-(4-fluoro-3-hydroxyphenoxy)pyridin-2-yl)phenyl)thiomorpholine 1,1-dioxide], which IC50 is on record?
A: Its IC50 is no more than 5 µM.

Q: `Oc1cc(Oc2cccc(-c3cc(F)ccc3F)n2)ccc1F` [Example 88, 5-{[6-(2,5-difluorophenyl)pyridin-2-yl]oxy}-2-fluorophenol] was tested. Which IC50 did it give?
A: The IC50 was no more than 5 µM.

Q: With `COc1cccc(-c2cccc(Oc3ccc(F)c(NS(C)(=O)=O)c3)n2)c1F` [Example 111, N-(2-fluoro-5-((6-(2-fluoro-3-methoxyphenyl)pyridin-2-yl)oxy)phenyl) methanesulfonamide] as the compound, how does the IC50 read?
A: Its IC50 is greater than 30 µM.

Q: `Oc1cc(Oc2cccc(-c3c(F)cccc3F)n2)ccc1F` [Example 78, 5-((6-(2,6-difluorophenyl)pyridin-2-yl)oxy)-2-fluorophenol] was tested. Which IC50 did it give?
A: Its IC50 is 5 to 10 µM.

Q: `COc1cccc(-c2cccc(Oc3cccc(NS(=O)(=O)C4CC4)c3)n2)c1F` [Example 95, N-(3-{[6-(2-fluoro-3-methoxyphenyl)pyridin-2-yl]oxy}phenyl)cyclopropane-sulfonamide] was tested. Which IC50 did it give?
A: Its IC50 is greater than 30 µM.

Q: For `O=C(O)c1cccc(-c2cccc(Oc3ccc(F)c(O)c3)n2)c1` [Example 68, 3-(6-(4-fluoro-3-hydroxyphenoxy)pyridin-2-yl)benzoic acid], which IC50 is on record?
A: Its IC50 is greater than 30 µM.

Q: `COc1cc(Oc2cccc(-c3ccc4c(c3)NS(=O)(=O)C4)n2)ccc1F` [Example 60, 6-(6-(4-fluoro-3-methoxyphenoxy)pyridin-2-yl)-1,3-dihydrobenzo[c]isothiazole 2,2-dioxide] was tested. Which IC50 did it give?
A: The IC50 was greater than 30 µM.

Q: How did the IC50 turn out when `CC(=O)Nc1nc2cc(-c3cccc(Oc4ccc(F)c(O)c4)n3)ccc2[nH]1` [Example 26, N-(5-(6-(4-fluoro-3-hydroxyphenoxy)pyridin-2-yl)-1H-benzo [d]imidazol-2-yl)acetamide] was run?
A: Its IC50 is no more than 5 µM.

Q: For `Oc1cc(Oc2cccc(-c3ccc(C(F)(F)F)cc3)n2)ccc1F` [Example 98, 2-fluoro-5-((6-(4-(trifluoromethyl)phenyl)pyridin-2-yl)oxy)phenol], which IC50 is on record?
A: Its IC50 is 10 to 30 µM.

Q: Which IC50 does the source give for `Oc1cc(Oc2cccc(-c3ccccc3F)n2)ccc1F` [Example 90, 2-fluoro-5-((6-(2-fluorophenyl)pyridin-2-yl)oxy)phenol] here?
A: The IC50 was no more than 5 µM.

Q: `O=C1COc2cc(-c3cccc(Oc4ccc(F)c(O)c4)n3)ccc2N1` [Example 51, 7-(6-(4-fluoro-3-hydroxyphenoxy)pyridin-2-yl)-2H-benzo[b][1,4]oxazin-3(4H)-one] was tested. Which IC50 did it give?
A: Its IC50 is greater than 30 µM.

Q: How did the IC50 turn out when `N#Cc1ccc(Oc2ccc(F)c(O)c2)nc1N1CCOCC1` [Example 62, 6-(4-fluoro-3-hydroxyphenoxy)-2-(morpholin-4-yl)pyridine-3-carbonitrile] was run?
A: Its IC50 is greater than 30 µM.
